Results as given in patent US20260199371A1, “COORDINATION COMPOUND, COMPOSITIONS, AND USES THEREOF FOR TREATING CANCERS” (HUEIYUAN BIOTECH LLC, priority 2023, published 2026).

Legend:
BEAS-2B cells = details: 0-800 μg/ml, 24 hours
Protocol: (§1) BEAS-2B cells (95102433, Sigma-Aldrich) were cultured in LHC-9 medium (Gibco™, Thermo Fisher Scientific, Waltham, MA, USA).

CL1-parental cells = details: 0-1600 μg/ml, 24 hours
Protocol: as §1

[1] = system: gemcitabine-resistant CL1 cells (CL1-GEMR cells); details: 0-1600 μg/ml, 24 hours
Protocol: as §1

[2] = system: EMT markers in LoVo-OXAR cells; details: western blot, 24 hours
From the text: (§2) Vimentin and E-cadherin are molecular markers linked to tumor progression through their roles in EMT, which is a pathological process contributing to migration and invasion of cancer cells and tumor progression. Vimentin is a key component of intermediate filaments, which helps maintain cellular integrity and resistance to stress. E-cadherin plays a role in maintaining epithelial phenotypes by mediating contact inhibition when cells proliferate and reach confluence. To further investigate the influence of the compound (II) on EMT marker expression, western blotting, immunofluorescence detection, and quantitative real-time reverse transcription polymerase chain reaction (qRT-PCR) were performed in LoVo-parental and LoVo-OXAR cells treated with various doses of the compound (II) for 24 hours.
(§3) The cells after the indicated treatments were harvested and subject to western blot analysis using primary antibodies against vimentin, E-cadherin, and GAPDH (San-ta Cruz Biotechnology Inc. Santa Cruz, California, USA). GAPDH was used as an internal control.

[3] = system: EMT markers in LoVo-parental cells; details: western blot, 24 hours
From the text: as §2, §3

[4] = system: EMT markers in LoVo-parental cells; details: immunofluorescence
From the text: as §2
The cells were then permeabilized with 0.1% Triton X-100 in 0.1% sodium citrate and the well was blocked with blocking buffer (2% bovine serum albumin), followed by immunofluorescence staining. The cells were incubated with primary antibodies against vimentin and E-cadherin for 24 hours at 4° C. and subsequently incubated with fluorescent secondary antibodies for 1 hour at 25° C. before DAPI staining and observation using fluorescence microscopy.

[5] = system: LoVo-OXAR cells tumor xenograft
Protocol: (§4) Six-week-old male NU/NU mice were purchased from Bio LASCO Taiwan Co., Ltd (Taipei, Taiwan) and randomly assigned into four groups (Groups 1 to 4), each containing three mice. […] Tumor volume and mice body weight were measured every three days. […] All mice were sacrificed on day 21, and the tumors were excised and weighed.
(§5) Moreover, the LoVo-parental and LoVo-OXAR tumor tissues were collected and subject to TUNEL assay.

[6] = system: LoVo-parental cells tumor xenograft
Protocol: as §4, §5

LoVo-OXAR cells [7] = details: high dose 100 mg/kg/day orally, compared to low dose 10 mg/kg/day
From the text: (§6) Six-week-old male NU/NU mice were purchased from Bio LASCO Taiwan Co., Ltd (Taipei, Taiwan) and randomly assigned into six groups (Groups 1 to 6), each containing three mice. […] All mice were sacrificed on day 30, and the mouse lung, kidney, spleen, and heart were examined for metastatic cancer cells.

LoVo-parental cells [8] = details: high dose 100 mg/kg/day orally, compared to low dose 10 mg/kg/day
From the text: as §6

HA22T-HDACiR cells = details: 0-1250 μg/ml, 24 hours
LNCaP cells = details: 24 hours
Protocol: Human prostate carcinoma LNCaP cells (commercially available from ATCC under the number CRL-1740) were cultured in RPMI-1640 medium (Gibco™, Thermo Fisher Scientific, Waltham, MA, USA) supplemented with 10% FBS.

143B cells [9] = assay: MTT assay, viability of 143B cells; type: cell-based, human; details: 24 hours
Protocol: Human osteosarcoma 143B cells (commercially available from ATCC under the number CRL-8303) were cultured in DMEM supplemented with 10% FBS and 1% sodium pyruvate.

143B cells [10] = details: Transwell migration
Protocol: (§7) Transwell migration assay, as described in Example 5.1, was performed on 143B cells to investigate how the compound (II) would affect the migration ability of bone cancer cells.

[11] = system: EMT markers in 143B cells; details: western blot
Protocol: as §7

SCC-25 cells = details: 0-1400 μg/ml, 24 hours
Protocol: Human oral squamous cell carcinoma (OSCC)SCC-25 cells (commercially available from ATCC under the number CRL-1628) were cultured in DMEM/F12 supplemented with 10% FBS.

CP70 cells = details: 0-1600 μg/ml, 24 hours
Jurkat cells = details: 0-1600 μg/ml, 24 hours
Protocol: Human T-acute lymphoblastic leukemia Jurkat cells (resistant to cisplatin and commercially available from ATCC under the number TIB-512) were cultured in RPMI 1640 medium supplemented with 10% FBS.

HeLa cells = details: 0.5-1000 μg/ml, 48 hours
Protocol: Human cervical carcinoma HeLa cells (commercially available from ATCC under the number CCL-2) were cultured in DMEM supplemented with 10% FBS.

A431 cells = details: 1-1000 μg/ml, 48 hours
Protocol: Human epidermoid carcinoma A431 cells (commercially available from ATCC under the number CRL-1555) were cultured in DMEM supplemented with 10% FBS.

LoVo-OXAR cells [12] = details: 24 hours
LoVo-parental cells [13] = details: single agent: compound (II) 500 μg/ml or oxaliplatin 50 μg/ml, 48 hours

For CC(=O)[O-].CC(=O)[O-].CC(=O)[O-].CC(=O)[O-].CC(=O)[O-].CC(=O)[O-].O.O.O.O.O=[N+]([O-])[O-].[Cr+3].[Fe+3].[Fe+3].[OH-].[OH-] [compound (II)], the “survival of non-tumorigenic BEAS-2B cells” value (BEAS-2B cells) was “did not significantly inhibit the survival of BEAS-2B cells”, the “viability of CL1-parental cells” value (CL1-parental cells) was “reduced the viability of both lung cancer cells in a dose-dependent manner” and the “viability of gemcitabine-resistant CL1 cells” value [1] was “reduced the viability of both lung cancer cells in a dose-dependent manner”. The “protein expression of E-cadherin” value [2] was “increased”, the “protein expression of vimentin” value [2] was “significantly reduced” and the “protein expression of E-cadherin” value [3] was “increased”. The “protein expression of vimentin” value [3] was “significantly reduced”, the “expression of E-cadherin” value [4] was “significantly increased” and the vimentin expression [4] was “significantly suppressed”. The “apoptosis in tumors (TUNEL)” value ([5]; LoVo-OXAR tumors) was “induced significantly higher apoptosis”, the “health of mice after treatment” value ([5]; LoVo-OXAR xenograft, 100 mg/kg orally every three days) was “healthy” and the tumor growth ([5]; LoVo-OXAR xenograft, 100 mg/kg orally every three days, about three weeks) was “significantly reduced the tumor growth”. For the same compound, the “body weight of the mice” value ([5]; LoVo-OXAR xenograft, day 1 to day 21, loss attributed to the tumor) was “body weight loss”, the “apoptosis in tumors (TUNEL)” value ([6]; LoVo-parental tumors) was “induced significantly higher apoptosis” and the “health of mice after treatment” value ([6]; LoVo-parental xenograft, 100 mg/kg orally every three days) was “healthy”. For the same compound, the tumor growth ([6]; LoVo-parental xenograft, 100 mg/kg orally every three days, about three weeks) was “significantly reduced the tumor growth”, the “body weight of the mice” value ([6]; LoVo-parental xenograft, day 1 to day 21) was “remained constant” and the “metastasis to the lung, kidney, spleen, and heart” value (LoVo-OXAR cells [7]) was “effectively inhibited the metastasis”. The “metastasis to the lung, kidney, spleen, and heart” value (LoVo-parental cells [8]) was “effectively inhibited the metastasis”, the “viability of HA22T-HDACiR cells” value (HA22T-HDACiR cells) was “reduced the viability of both liver cancer cells in a dose-dependent manner” and the “viability of LNCaP cells” value (LNCaP cells; 0-1600 μg/ml) was “reduced the viability of the prostate cancer cells in a dose-dependent manner”. The “IC50 against LNCaP cells” value (LNCaP cells; MTT) was “approximately 1033 μg/ml”, the “viability of 143B cells” value (143B cells [9]; 0-4000 μg/ml) was “reduced the viability of the osteosarcoma cells in a dose-dependent manner” and the “IC50 against 143B cells” value (143B cells [9]; MTT) was “approximately 500 μg/ml”. The “crawling (migration) of 143B cells” value (143B cells [10]) was “inhibited by the compound (II) in a dose-dependent manner”, the E-cadherin expression [11] was “increasing” and the vimentin expression [11] was “significantly decreased”. For the same compound, the “viability of SCC-25 cells” value (SCC-25 cells) was “reduced the viability of the OSCC cells in a dose-dependent manner”, the “viability of CP70 cells” value (CP70 cells) was “reduced the viability of the ovarian cancer cells in a dose-dependent manner” and the “viability of Jurkat cells” value (Jurkat cells) was “reduced the viability of the Jurkat cells in a dose-dependent manner”. The “viability of HeLa cells” value (HeLa cells) was “reduced the viability of the metastatic Hela cells in a dose-dependent manner”, the “viability of A431 cells” value (A431 cells) was “reduced the viability of the A431 cells in a dose-dependent manner” and the “viability of LoVo-OXAR cells” value (LoVo-OXAR cells [12]; 0-4000 μg/ml) was “reduced the viability of both colorectal cancer cells in a dose-dependent manner”. The “IC50 against LoVo-OXAR cells” value (LoVo-OXAR cells [12]; MTT) was “about 2000 μg/ml” and the “migration rate of LoVo-parental cells” value (LoVo-parental cells [13]) was “significantly decreased”.
